Measurements published in EP2198709A1, “Method for treating resistant animal pests” (Bayer CropScience AG, priority 2008, dated 2010).

Tests used:
Format in all cases: in vivo
Bemisia tabaci ESP-00 = assay: Leaf-dip bioassay, adult whiteflies, multi-resistant strain ESP-00; conditions: adults; for ESP-00 LC50: multi-resistant strain ESP-00, mortality after 72 h
Text: Es wurden Versuche durchgeführt, um die überlegene Blattwirkung von Enaminocarbonylverbindungen gegen adulte Tiere eines Stamms von Bemisia tabaci zu zeigen, der bekanntermaßen resistent ist gegen Neonikotinoid-Insektizide sowie andere Insektizidklassen, einschließlich Insekten-Wachstumsregulatoren (wie Buprofezin) und Antifeedants (Substanzen, die einen Schaderreger vom Fraß abhalten) (wie Pymetrozin).
Baumwollblattscheiben (30 mm im Durchmesser) wurden für 5 sec in wässrige Lösungen technischer Insektizide, enthaltend 0,2 g/l Triton-X-100 als nicht-ionisches Benetzungsmittel, getaucht. Luftgetrocknete Blattscheiben wurden dann mit der adaxialen Seite nach unten auf ein Agarbett (12 g/l) in einer kleinen Petrischale (40 mm im Durchmesser) gelegt. Adulte Weiße Fliegen wurden mittels eines Vakuum-getriebenen Aspirators aus Aufzuchtkäfigen eingesammelt und 20 adulte Tiere wurden nach kurzer CO2-Narkose auf die Blattscheiben gelegt. Anschließend wurde jede Petrischale mit einem belüfteten Deckel verschlossen und umgedreht aufbewahrt. Nach 72 h wurde die Mortalität der Weißen Fliegen bestimmt. Jedes Insektizid wurde mindestens dreifach mit 2-oder 3-fach Bestimmungen pro Konzentration getestet.
LC50-Werte wurden aus Probit-Regressionen unter Verwendung des Computerprogramms POLO-PC 2 (LeOra Software, Berkeley, USA) berechnet.
Tabelle 1. Log-Dosis Probit Mortalitätsdaten für verschiedene Klassen von Insektiziden erhalten aus Blatt-Tauch-Bioassays gegen adulte Tiere zweier Bemisia tabaci Stämme, SUD-S und ESP-00, die bekanntermaßen Insektizid-empfindlich (SUD-S) bzw. multiresistent (ESP-00) sind (Stumpf und Nauen, 2003). Mortalität wurde nach 72 h bestimmt, mit Ausnahme von Buprofezin (10-12 d).

[1] = tested on: Nymphen von Bemisia tabaci; assay: Field trial on aubergine plants, drench, against nymphs of neonicotinoid-resistant whiteflies (Almeria); conditions: drenched 3x, 150 g ai/ha/m CH, I-5 SL 300, Imidacloprid SL 200
Text: In Almeria (Südspanien) wurden Auberginenpflanzen, die stark mit Nymphen von bekanntermaßen Neonikotinoyl-resistenten weißen Fliegen (Bemisia tabaci) infiziert waren, jeweils drei Mal im Abstand von 9 und 12 Tagen mit der Verbindung I-5 (SL 300, 150 g ai/ha/m CH (g aktive Substanz/ha/m CH, CH = Laubwand-Höhe) bzw. mit Imidacloprid (SL 200, 150 g ai/ha/m CH) gegossen. Zu verschiedenen Zeitpunkten nach der dritten Behandlung (DAC = Tage nach 3. Behandlung) wurde die Wirksamkeit (in % Abbott: Verhältnis der Anzahl Nymphen auf behandelter Pflanze / Fläche zur Anzahl Nymphen auf Kontrolle) der beiden Substanzen gegen Nymphen von Bemisia tabaci in bestimmt.

[2] = tested on: Trialeurodes vaporariorum; assay: Trial on poinsettia, spray, against neonicotinoid-resistant greenhouse whiteflies (Netherlands); conditions: 150 g ai/ha/m CH, SL 100, Imidacloprid SL 200
Text: In Zwaagdiyk (Niederlande) wurden Weihnachtssterne, die stark mit bekanntermaßen Neonikotinoyl-resistenten Gewächshaus-Weißen Fliegen (Trialeurodes vaporariorum) infiziert waren, jeweils zwei Mal im Abstand von 7 Tagen mit der Verbindung 1-5 (SL 100, 150 g ai/ha/m CH (g aktive Substanz/ha/m CH, CH = Laubwand-Höhe) bzw. mit Imidacloprid (SL 200, 150 g ai/ha/m CH) besprüht. Zu verschiedenen Zeitpunkten nach der ersten bzw. zweiten Behandlung (DAA = Tage nach 1. Behandlung, DAB = Tage nach zweiter Behandlung) wurde die Wirksamkeit (in % Abbott: Verhältnis der Anzahl Tiere auf behandelter Pflanze / Fläche zur Anzahl Tiere auf Kontrolle) der beiden Substanzen gegen Trialeurodes vaporariorum bestimmt.

[3] = tested on: Eier von Bemisia argentifolii; assay: Field trial on melon plants, spray, against eggs of neonicotinoid-resistant silverleaf whiteflies (Arizona); conditions: 150 g ai/ha/m CH, I-5 SL 100, Imidacloprid SC 192
Text: (§1) In Arizona (USA) wurden Melonenpflanzen, die stark mit Eiern von bekanntermaßen Neonikotinoyl-resistenten Silberflügeligen Weißen Fliegen (Bemisia argentifolii) infiziert waren, jeweils zwei Mal im Abstand von 15 Tagen mit der Verbindung I-5 (SL 100, 150 g ai/ha/m CH (g aktive Substanz/ha/m CH, CH = Laubwand-Höhe) bzw. mit Imidacloprid (SC 192, 150 g ai/ha/m CH) besprüht. Zu verschiedenen Zeitpunkten nach der ersten bzw. zweiten Behandlung (DAA = Tage nach 1. Behandlung, DAB = Tage nach zweiter Behandlung) wurde die Wirksamkeit (in % Abbott: Verhältnis der Anzahl Eier auf behandelter Pflanze / Fläche zur Anzahl Eier auf Kontrolle) der beiden Substanzen gegen Eier von Bemisia argentifolii bestimmt.

[4] = tested on: Nilaparvata lugens Bayer S; assay: Spray test on infested rice seedlings (standard screening), susceptible strain Bayer S; conditions: rice seedlings sprayed, evaluation 7 days after infection
Text: (§2) Reissetzlinge wurden mit Stämmen von Nilaparvata lugens (Bayer S und Vietnam) infiziert und mit der Verbindung I-5 bzw. mit Imidacloprid besprüht. Die Auswertung erfolgte 7 Tage nach Infektion (Standard-Screening-Verfahren).

[5] = tested on: Nilaparvata lugens Vietnam; assay: Spray test on infested rice seedlings (standard screening), resistant strain Vietnam; conditions: rice seedlings sprayed, evaluation 7 days after infection
Text: as §2

[6] = tested on: Nymphen von Bemisia argentifolii; assay: Field trial on melon plants, spray, against nymphs of neonicotinoid-resistant silverleaf whiteflies (Arizona); conditions: 150 g ai/ha/m CH, SL 100, Imidacloprid SC 192
Text: as §1, with “Nymphen” for “Eiern”, “1-5” for “I-5”, “Nymphen” for “Eier”

[7] = 7 DAB (days after 2nd treatment), sprayed 2x
[8] = 8 DAA (days after 1st treatment), sprayed

| Compound | ESP-00 LC50 (Bemisia tabaci ESP-00) [ppm] | Effizienz ([1]; 7 DAC) | Effizienz ([1]; 14 DAC) | Effizienz ([1]; 21 DAC) | Effizienz ([2]; 7 DAA, sprayed) | Effizienz ([2]; 7 DAB, sprayed 2x) | Effizienz ([2]; 14 DAB, sprayed 2x) | Effizienz ([2]; 21 DAB, sprayed 2x) | Effizienz ([2]; 29 DAB, sprayed 2x) | Effizienz [3, 7] | Effizienz [3, 8] | Effizienz ([3]; 13 DAB, sprayed 2x) [% Abbott] | Effizienz ([3]; 14 DAA, sprayed) | Bayer S (empfindlicher Stamm) LC50 [4] | Vietnam (resistenter Stamm) LC50 [5] | Effizienz ([6]; 7 DAB, sprayed 2x) | Effizienz ([6]; 8 DAA, sprayed) | Effizienz ([6]; 13 DAB, sprayed 2x) | Effizienz ([6]; 14 DAA, sprayed) | Resistenz / Kreuz-resistenz von adulten B. tabaci Tieren des Stamms ESP-00 im Vergleich zu SUD-S (Bemisia tabaci ESP-00; leaf-dip, result in words) |
| --- | --- | --- | --- | --- | --- | --- | --- | --- | --- | --- | --- | --- | --- | --- | --- | --- | --- | --- | --- | --- |
| O=[N+]([O-])NC1=NCCN1Cc1ccc(Cl)nc1 [Imidacloprid] | 300 | 41 % Abbott | 50,7 % Abbott | 21 % Abbott | 11,4 % Abbott | 9,9 % Abbott | 0 % Abbott | 3,7 % Abbott | 18,6 % Abbott | 30,2 % Abbott | 66,1 % Abbott | 0 | 69,5 % Abbott | 0,0049 g/ha | 13 g/ha | 36,1 % Abbott | 53,1 % Abbott | 31,9 % Abbott | 47,6 % Abbott |  |
| O=C1C=C(N(Cc2ccc(Cl)nc2)CC(F)F)CO1 [Verbindung I-5, 4-{[(6-Chlorpyrid-3-yl)methyl](2,2-difluorethyl)amino}furan-2(5H)-on] | 36 | 79,1 % Abbott | 63,7 % Abbott | 66,8 % Abbott | 23 % Abbott | 50,9 % Abbott | 39,1 % Abbott | 62,2 % Abbott | 50,9 % Abbott | 81,6 % Abbott | 97,6 % Abbott | 69 | 72,9 % Abbott | 0,36 g/ha | 3,2 g/ha | 55,4 % Abbott | 86,8 % Abbott | 80,9 % Abbott | 84,6 % Abbott | nur geringfügige Kreuz-resistenz |
